“And” between values parts separate entries of the source, which are not always exact repeats. Equal values may be shown once. Read-outs that look alike come from different tables or passages of the source.
Assays:
[1] = system: W1L2:R865 cell line; experiment: Growth inhibition of W1L2:R865 cells (acquired resistance to CB 30865); format: cell-based, human
Method: A cell line was raised with acquired resistance to CB 30865, denoted W1L2:R865, by stepwise selection over ˜9 months.
The generated W1L2:R865 cell line was routinely cultured in 0.03 μm CB 30865 under the same conditions as W1L2 cells, with cells being grown in the absence of CB 30865 for ˜2 weeks before an experiment.
The activity of compounds against W1L2:R865 cells was determined within parallel experiments by 72 h growth inhibition assay (Coulter counts). CB 30865 was included in every experiment as an internal control.

[2] = system: W1L2 human lymphoblastoid cells; experiment: Growth inhibition of W1L2 cells; format: cell-based
[3] = system: W1L2:C1 cells; experiment: Growth inhibition of W1L2:C1 cells (elevated TS); format: cell-based, human; settings: read-out: Inhibition of Cell Growth IC50, W1L2:C1 (B)
Method: (§1) W1L2 human lymphoblastoid, W1L2:C1 (elevated TS; O'Connor et al, Cancer Res, 52, 1137-1143 (1992)) and L1210 mouse leukaemia cells were cultured in suspension and A2780, PXN94, 41M, HX62, SKOV3 (human ovarian carcinoma), MCF-7 (human breast carcinoma), HT29 and SW480 (human colon carcinoma) cell lines were grown as monolayers as described in Jackman et al, Cancer Res, 50, 5212-5218 (1990) and Jackman et al, Br. J. Cancer, 71, 914-924 (1995).
(§2) Growth inhibition studies with suspension cells were performed as described in Jackman et al, Cancer Res, 50, 5212-5218 (1990). Activity against the adherent cell lines was assessed by MTT assay (Twentyman et al, Br. J. Cancer, 56, 279-285 (1987)) where cells were seeded in 96-well plates at 1000-3000 cells per well, incubated overnight and then exposed to the appropriate drug concentrations for 96-120 h.

[4] = background statement on the known compound; cited from earlier work
[5] = system: W1L2 cells; experiment: Growth inhibition of W1L2 in presence of folate metabolites (dThd/HX); format: cell-based, human; settings: in the presence of 10 μM thymidine (dThd) and 50 μM hypoxantine (HX), read-out: Inhibition of Cell Growth IC50, W1L2 + dThd/HX (C)
Method: Growth inhibition assays as described above were performed in W1L2 cells where compounds were incubated in the presence of 10 μM thymidine (dThd) and 50 μM hypoxantine (HX) (purchased from Sigma Chemical Co.).

[6] = molecular target: mouse thymidylate synthase (TS) (Mus musculus, UniProt P07607); experiment: Inhibition of L1210 thymidylate synthase (TS)
[7] = Tolerability (weight loss, deaths, MTD) in nude mice
Method: One day later (day 1), CB 300919 was administered by ip injection, daily for 3 days (days 1-3).
Mice injected with CB 300919 i.p. on days 1-3.

[8] = system: CH1 ovarian carcinoma cell line; experiment: Hollow fibre assay, CH1 cells; format: in vivo, nude mice; settings: for O.D. as % control: harvested day 5
Method: (§3) As adopted by the NCI, the hollow fibre assay (Hollingshead et al. 1995, Life Sciences, 57: 13 1-141) was used as an initial means of assessing the in vivo antitumour activity of CB 300919.
(§4) The hollow fibre assay was performed using the CH1 ovarian carcinoma cell line and the HT29 colon line.
(§5) Results are expressed as a % Treated/Control (T/C).

[9] = MTD in DBA2 mice; settings: mouse, in vivo
Method: MTD in DBA2 mice ˜1.5 mg/kg/d×3 days.

[10] = system: HT29 cells; experiment: In vitro sensitivity of HT29 cells compared with CH1 cells; format: cell-based, human
Method: as §1, §2

[11] = system: HT29 colon line; experiment: Hollow fibre assay, HT29 cells; format: in vivo, nude mice; settings: for O.D. as % control: harvested day 5
Method: as §3, §4, §5

[12] = Homo sapiens, Lymphoblastoid cell, W1L2 suspension cells, read-out: Inhibition of Cell Growth IC50, W1L2 (B)
[13] = 72 h growth inhibition assay (Coulter counts), read-out: Inhibition of Cell Growth IC50, W1L2:R865 (D)
[14] = W1L2 suspension cells, read-out: Inhibition of Cell Growth IC50, W1L2 (B)
[15] = Homo sapiens, 72 h, read-out: Inhibition of Cell Growth IC50, W1L2:R865 (D), 72 h growth inhibition assay (Coulter counts)
[16] = 0.25 mg/kg/d i.p. daily x 3 days
[17] = 0.50 mg/kg/d i.p. daily x 3 days
[18] = 0.75 mg/kg/d i.p. daily x 3 days

Sequence of mouse thymidylate synthase (TS) (P07607 whole entry): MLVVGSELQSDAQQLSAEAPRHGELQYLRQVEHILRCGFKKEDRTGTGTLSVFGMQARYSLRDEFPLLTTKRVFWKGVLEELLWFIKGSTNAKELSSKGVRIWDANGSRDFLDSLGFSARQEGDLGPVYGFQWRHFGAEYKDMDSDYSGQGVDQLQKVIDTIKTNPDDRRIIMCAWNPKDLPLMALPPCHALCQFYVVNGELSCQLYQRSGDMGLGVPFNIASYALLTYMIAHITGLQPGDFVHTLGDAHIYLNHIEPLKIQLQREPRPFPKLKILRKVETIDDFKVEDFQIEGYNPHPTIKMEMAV

Which results are given for `C#CCN(Cc1cc2c(=O)[nH]c(C)nc2cc1Br)c1ccc(C(=O)NCc2cccnc2)cc1` [CB30865, 4-[N-[7-bromo-2-methyl-4-oxo-3,4-dihydroquinazolin-6-ylmethyl]-N-(prop-2-ynyl)amino]-N-(3-pyridylmethyl)benzamide, reference compound]?
IC50 ([1]; Homo sapiens, 72 h growth inhibition assay (Coulter counts), read-out: Inhibition of Cell Growth IC50, W1L2:R865 (D)): 610 nM; IC50 [2, 12]: 2.8 ± 0.5 nM; IC50 ([2]; Homo sapiens, Lymphoblastoid cell, W1L2 cells, 72 h, read-out: 72 h IC50): 2.8 nM; IC50 ([3]; Homo sapiens): 2.3 ± 0.15 nM; water-solubility [4]: very low water-solubility; IC50 ([5]; Homo sapiens): 2.2 ± 0.82 nM

Which results are given for `C#CCN(Cc1cc2c(=O)n(C)c(CN3CCN(CC)CC3)nc2cc1Cl)c1ccc(C(=O)NCc2cccnc2)cc1` [CB300927, 4-[N-[7-Chloro-3-methyl-2-(4-ethyl-piperazin-1-yl)methyl-4-oxo-3,4-dihydroquinazolin-6-ylmethyl]-N-(prop-2-ynyl)amino]-N-(3-yridylmethyl)benzamide]?
IC50 [1, 13]: 22000 nM and 20000 nM; IC50 [2, 14]: 0.78 nM and 0.8 nM; IC50 [5]: 0.78 nM and 0.76 nM

With `C#CCN(Cc1cc2c(=O)n(CC(=O)N3CCCCC3)c(CN3CCCCC3)nc2cc1Cl)c1ccc(C(=O)NCc2cccnc2)cc1` [CB300938, 4-[N-[7-Chloro-4-oxo-2-(piperidin-1-yl)methyl-3-piperidinocarbonylmethyl-3,4-dihydroquinazolin-6-ylmethyl]-N-(prop-2-ynyl)amino]-N-(3-pyridylmethyl)benzamide] as the compound, how does the IC50 [1, 15] read?
The IC50 was over 50000 nM.

What about the IC50 [2, 12] of the same compound?
The IC50 was 8.4 nM.

And the IC50 ([3]; Homo sapiens)?
The IC50 was 7.4 nM.

And the melting point?
Its melting point is 128 to 130 °C.

For `C#CCN(Cc1cc2c(=O)n(C)c(CN3CCC[C@H]3C(=O)OC)nc2cc1Cl)c1ccc(C(=O)NCc2cccnc2)cc1` [CB300928, 4-[N-[7-Chloro-3-methyl-2-(methyl-L-prolin-1-yl)methyl-4-oxo-3,4-dihydroquinazolin-6-ylmethyl]-N-(prop-2-ynyl)amino]-N-(3-pyridylmethyl)benzamide], which IC50 [1, 13] is on record?
Its IC50 is 24000 nM and 19000 nM.

And the IC50 [5]?
Its IC50 is 14 nM and 7.6 nM.

Which results are given for `C#CCN(Cc1cc2c(=O)n(C)c(CN(CC)CC)nc2cc1Cl)c1ccc(C(=O)NCc2cccnc2)cc1` [CB300922, 4-[N-[2-Diethylaminomethyl-7-chloro-3-methyl-4-oxo-3,4-dihydroquinazolin-6-ylmethyl]-N-(prop-2-ynyl)amino]-N-(3-pyridylmethyl)benzamide]?
IC50 [1, 15]: > 50000 nM; Inhibition of L1210 TS (A) IRP* (inverse relative potency) [6]: >2500; IC50 [2, 12]: 0.71 ± 0.0076 nM; IC50 ([3]; Homo sapiens): 0.42 nM; melting point: 180 to 182 °C; IC50 ([5]; Homo sapiens): 0.73 ± 0.05 nM

For `C#CCN(Cc1cc2c(=O)n(C)c(CN3CCCC3)nc2cc1Cl)c1ccc(C(=O)NCc2cccnc2)cc1` [CB300926, 4-[N-[7-Chloro-3-methyl-2-pyrrolidinomethyl-4-oxo-3,4-dihydroquinazolin-6-ylmethyl]-N-(prop-2-ynyl)amino]-N-(3-pyridylmethyl)benzamide], which IC50 [1, 15] is on record?
The IC50 was 24000 nM.

And the IC50 [2, 12]?
The IC50 was 0.7 nM.

What about the IC50 [2, 14] of the same compound?
Its IC50 is 0.74 nM.

What about the IC50 ([5]; Homo sapiens) of the same compound?
Its IC50 is 0.76 nM.

Which IC50 ([1]; read-out: Inhibition of Cell Growth IC50, W1L2:R865 (D), 72 h growth inhibition assay (Coulter counts)) does the source give for `C#CCN(Cc1cc2c(=O)n(C)c(CN3CCN(C)CC3)nc2cc1Cl)c1ccc(C(=O)NCc2cccnc2)cc1` [CB300919, 4-[N-[7-Chloro-3-methyl-2-(4-methyl-piperazin-1-yl)methyl-4-oxo-3,4-dihydroquinazolin-6-ylmethyl]-N-(prop-2-ynyl)amino]-N-(3-pyridylmethyl)benzamide] here?
Its IC50 is 13000 ± 4500 nM.

And the “Inhibition of L1210 TS (A) IRP* (inverse relative potency)” value [6]?
The value was over 2500.

And the “Weight loss (up to day 5)” value [7, 16]?
Its value is “No sig. wt. loss”.

And the “Weight loss (up to day 5)” value [7, 17]?
Its value is 0-19% wt. loss.

What about the “Weight loss (up to day 5)” value [7, 18] of the same compound?
Its value is 9-22% wt. loss.

What about the “Comments: mice killed” value ([7]; 0.75 mg/kg/d i.p. daily x 3 days, d4, 22% wt. loss) of the same compound?
The value was “⅓ killed (d4; 22% wt. loss”.

And the MTD at 3 days ([7]; nude, mouse, in vivo, intraperitoneal)?
The MTD at 3 days was 0.5 to 0.75 mg/kg/day.

What about the IC50 [2, 14] of the same compound?
Its IC50 is 0.49 ± 0.24 nM.

And the “optical density (% Treated/Control)” value ([8]; CH1 cells in the fibres, all doses given IP (0.25-0.75 mg/kg/day×3 days))?
Its value is under 15%.

What about the “O.D. as % control” value ([8]; CH1 ovarian, 0.25 mg/kg/d i.p. daily x 3 days) of the same compound?
Its value is 13%.

What about the “O.D. as % control” value ([8]; CH1 ovarian, 0.50 mg/kg/d i.p. daily x 3 days) of the same compound?
The value was 13%.

And the “O.D. as % control” value ([8]; CH1 ovarian, 0.75 mg/kg/d i.p. daily x 3 days)?
Its value is 13%.

And the “Dose to give 50% inhibition of tumour growth” value ([8]; CH1 ovarian, i.p. daily x 3 days)?
The value was under 0.25 mg/kg/day.

And the MTD at 3 days [9]?
The MTD at 3 days was about 1.5 mg/kg/day.

And the IC50 [3]?
The IC50 was 0.44 nM and 0.28 nM.

What about the “lower sensitivity of HT29 cells in vitro” value [10] of the same compound?
The value was about 10 fold.

What about the “O.D. as % control” value [11, 16] of the same compound?
Its value is 92%.

And the “O.D. as % control” value [11, 17]?
Its value is 34%.

What about the “O.D. as % control” value [11, 18] of the same compound?
The value was 29%.

What about the “Dose to give 50% inhibition of tumour growth” value ([11]; i.p. daily x 3 days) of the same compound?
Its value is 0.4 mg/kg/day.

And the IC50 ([5]; Homo sapiens)?
Its IC50 is 0.32 nM.

For `C#CCN(Cc1cc2c(=O)n(C)c(CN3CCN(c4ccccc4)CC3)nc2cc1Cl)c1ccc(C(=O)NCc2cccnc2)cc1` [CB300934, 4-[N-[7-Chloro-3-methyl-4-oxo-2-(4-phenylpiperazin-1-yl)methyl-3,4-dihydroquinazolin-6-ylmethyl]-N-(prop-2-ynyl)amino]-N-(3-pyridylmethyl)benzamide], which IC50 [1, 15] is on record?
The IC50 was 940 nM.

And the IC50 [2, 12]?
Its IC50 is 7.2 nM.

What about the IC50 ([3]; Homo sapiens) of the same compound?
Its IC50 is 5.4 nM.

And the melting point?
Its melting point is 214 to 216 °C.

With `C#CCN(Cc1cc2c(=O)n(C)c(CN3CCCCC3)nc2cc1Cl)c1ccc(C(=O)NCc2cccnc2)cc1` [CB300923, 4-[N-[7-Chloro-3-methyl-4-oxo-2-piperidinomethyl-3,4-dihydroquinazolin-6-ylmethyl]-N-(prop-2-ynyl)amino]-N-(3-pyridylmethyl)benzamide] as the compound, how does the IC50 [1, 15] read?
Its IC50 is 14000 nM.

What about the “Inhibition of L1210 TS (A) IRP* (inverse relative potency)” value [6] of the same compound?
Its value is over 4211.

What about the IC50 [2, 12] of the same compound?
The IC50 was 0.8 nM.

What about the melting point of the same compound?
The melting point was 148 to 150 °C.

What about the IC50 ([5]; Homo sapiens) of the same compound?
Its IC50 is 0.78 nM.

With `C#CCN(Cc1cc2c(=O)n(CCN(C)C)c(CN3CCCCC3)nc2cc1Cl)c1ccc(C(=O)NCc2cccnc2)cc1` [CB300933, 4-[N-[7-Chloro-3-(2-dimethylaminoethyl)-4-oxo-2-piperidin-1-ylmethyl-3,4-dihydroquinazolin-6-ylmethyl]-N-(prop-2-ynyl)amino]-N-(3-pyridylmethyl)benzamide] as the compound, how does the IC50 [1, 15] read?
Its IC50 is 7200 nM.

And the IC50 [2, 12]?
Its IC50 is 2.9 nM.

What about the IC50 ([3]; Homo sapiens) of the same compound?
The IC50 was 2.8 nM.

And the melting point?
Its melting point is 90 to 93 °C.

Reference: US6699861B1, “Anti-quinazoline compounds” (Cancer Research Technology Limited, priority 1999, dated 2004)
